Source: patent publication US10576086B2, “Triazine derivatives as interferon-gamma inhibitors” (University of Greenwich, priority 2015, dated 2020)

Experiments:
PBMCs = test: Experiment 1: PBMC viability, trypan blue exclusion; format: cell-based, human; conditions: after 24 h incubation
Experimental: Cell viability was checked using trypan blue exclusion, using 0.04% trypan blue solution (0.4% trypan blue solution (Sigma, UK) diluted 10× with PBS). 10 μl trypan blue solution was mixed with 10 μl cell suspension, and after 5 minutes was mounted onto the haemocytometer. The total number of cells, and the total number of viable (colourless) cells were counted in three 1 mm squares. Viability was greater than 85% in all cases.
(§1) The tubes were incubated at 37° C. for 24 hours under a 5% CO2 atmosphere. After incubation, the cells (>75% viable according to trypan blue test) were centrifuged at 3000 prm for 10 minutes, and the cell-free supernatants were collected and stored at −70° C. before analysis for IFN-γ.

[1] = system: IFN-γ production in human peripheral blood mononuclear cells (PBMCs); test: Experiment 1: IFN-γ production by PHA-stimulated human PBMCs, ELISA; format: cell-based; conditions: for IFN-γ Concentration: PHA 5 μg/ml; for IFN-γ Concentration, Mean: 24 h
Experimental: The ex vivo activity of various compounds towards suppression of IFN-γ production in human peripheral blood mononuclear cells (PBMCs) was studied.
[…] They were not taking any other prescribed medication that could interfere with the results.
The blood was transferred into 50 ml centrifuge tubes (Corning, USA) containing heparin sodium salt 37.5 mg heparin powder diluted in 300-500 μl phosphate buffered saline (PBS) for 50 ml blood), and centrifuged at 2000 rpm for 10 minutes, and the plasma portion was separated. The plasma was further centrifuged at 3000 rpm for 10 minutes, and the supernatant separated and kept for later use.
The blood cells from the initial centrifugation were diluted with an equal volume of RPMI-1640 (Sigma, UK), and layered (2:1) onto Lymphoprep (Axis-Shield, Norway) in 25 ml universal tubes (Bibby Sterilin, UK) for density gradient centrifugation at 2500 rpm for 30 minutes.
PBMCs (lymphocytes and monocytes) were then removed from the interface, diluted in an equal volume of RPMI-1640 and washed twice by centrifugation at 3000 rpm for 10 minutes.
For testing, the PBMCs were re-suspended in a known volume of culture medium containing RPMI-1640 supplemented with 2 mM L-glutamine, 100 U penicillin, and 100 μg streptomycin (Sigma, UK).
The cell count was determined by the use of a haemocytometer using 10 μl of the cell suspension. The number of cells was determined based on a count in 5 random 1 mm squares.
The cell solution was then diluted with the supplemented RPMI-1640 medium to ensure a cell count of 2×10^6 cells/ml.
The PBMC suspension was added to tissue culture tubes (Bibby Sterilin, UK) with 5% autologous plasma, 5 μg/mlphytohaemaglutinin (PHA) to stimulate T-lymphocyte IFN-γ production, and a solution containing various concentrations of the compound to be studied. A control containing no compound was also cultured for each subject.
In the case of lamotrigine, the isethionate salt was used, and diluted with RPMI-1640 to produce 100 μM, 30 μM, 10 μM and 3 μM solutions that were tested on PBMCs from the first three subjects. With PBMC's from the other two subjects, a 300 μM solution was also tested.
For sipatrigine, the mesylate salt was used, and diluted with RPMI-1640 to produce 30 μM, 10 μM, 3 μM and 1 μM solutions. It was tested on PBMCs from the first three subjects only.
as §1
Levels of IFN-γ produced by the PBMCs were determined by the DuoSet ELISA Development system for human IFN-γ (RD Systems, UK), with a sensitivity of 15.6-1000 pg/ml.
Capture antibody, detection antibody, standard and streptavidin-HRP (streptavidin conjugated to horseradish peroxidase) were provided. A 96-well microtitre plate (Corning CoStar, flat bottom, polystyrene, high binding microtitre plate, UK) was coated with 100 μl per well of capture antibody (mouse anti-human IFN-γ at 4.0 μg/ml), sealed and incubated overnight. Unbound capture antibody was washed from the wells three times, using a wash buffer (0.05% Tween 20 in PBS). Block buffer (1% bovine serum albumin (BSA) in PBS) was then added. After incubation for 1 hour, the wells were washed, and sample culture supernatants or standards were added. A 7-point standard curve (in the range 15.6-1000 pg/ml) was produced from […] recombinant human IFN-γ using 2-fold serial dilutions in reagent diluent (0.1% BSA, 0.05% Tween 20 in tris-buffered saline (20 mM Trizma base, 150 mM NaCl)). The sealed plates were left to incubate for 2 hours.
After further washing, the detection antibody (biotinylated goat anti-human IFN-γ at 175 ng/ml) was added, and the plates sealed and incubated for a further 2 hours. […]

Nc1nnc(-c2cccc(Cl)c2Cl)c(N)n1 [Lamotrigine, 3,5-diamino-6-(2,3-dichlorophenyl)-1,2,4-triazine]
effect on PBMC viability (PBMCs): did not appear to alter PBMC viability | IFN-γ Concentration ([1]; 3 μM, Subject 1, 24 h): 1153.13 pg/mL | IFN-γ Concentration ([1]; 3 μM, Subject 2, 24 h): 1238.68 pg/mL | IFN-γ Concentration ([1]; 3 μM, Subject 3, 24 h): 1641.69 pg/mL | IFN-γ Concentration ([1]; 3 μM, Subject 4, 24 h): 937.30 pg/mL | IFN-γ Concentration ([1]; 3 μM, Subject 6, 24 h): 1305.54 pg/mL | IFN-γ Concentration, Mean ([1]; 3 μM, mean of five subjects): 1255.27 pg/mL | IFN-γ Concentration ([1]; 10 μM, Subject 1, 24 h): 923.32 pg/mL | IFN-γ Concentration ([1]; 10 μM, Subject 2, 24 h): 1307.46 pg/mL | IFN-γ Concentration ([1]; 10 μM, Subject 3, 24 h): 1180.21 pg/mL | IFN-γ Concentration ([1]; 10 μM, Subject 4, 24 h): 895.04 pg/mL | IFN-γ Concentration ([1]; 10 μM, Subject 6, 24 h): 1227.25 pg/mL | IFN-γ Concentration, Mean ([1]; 10 μM, mean of five subjects): 1106.66 pg/mL | IFN-γ Concentration ([1]; 30 μM, Subject 1, 24 h): 872.99 pg/mL | IFN-γ Concentration ([1]; 30 μM, Subject 2, 24 h): 1089.69 pg/mL | IFN-γ Concentration ([1]; 30 μM, Subject 3, 24 h): 897.48 pg/mL | IFN-γ Concentration ([1]; 30 μM, Subject 4, 24 h): 853.66 pg/mL | IFN-γ Concentration ([1]; 30 μM, Subject 6, 24 h): 1191.37 pg/mL | IFN-γ Concentration, Mean ([1]; 30 μM, mean of five subjects): 981.04 pg/mL | IFN-γ Concentration ([1]; 100 μM, Subject 1, 24 h): 834.21 pg/mL | IFN-γ Concentration ([1]; 100 μM, Subject 2, 24 h): 886.41 pg/mL | IFN-γ Concentration ([1]; 100 μM, Subject 3, 24 h): 392.96 pg/mL | IFN-γ Concentration ([1]; 100 μM, Subject 4, 24 h): 775.28 pg/mL | IFN-γ Concentration ([1]; 100 μM, Subject 6, 24 h): 1095.88 pg/mL | IFN-γ Concentration, Mean ([1]; 100 μM, mean of five subjects): 796.95 pg/mL | IFN-γ Concentration ([1]; 300 μM, Subject 4, 24 h): 495.48 pg/mL | IFN-γ Concentration ([1]; 300 μM, Subject 6, 24 h): 798.32 pg/mL | IFN-γ Concentration, Mean ([1]; 300 μM, mean of two subjects): 646.90 pg/mL | inhibition of IFN-γ production, trend ([1]; 300 μM, two subjects, no significance value calculated): continuing trend towards further increased inhibition | inhibition of IFN-γ production, significance recalculated without subject 3 ([1]; 10, 30 and 100 μM, four subjects): statistically significant (P<0.05) inhibition of IFN-γ production | inhibition of IFN-γ production (in words) ([1]; Experiment 1, human PBMCs): inhibits the amount of IFN-γ produced by the PBMCs | reduction in IFN-γ production ([1]; Subject 3, 100 μM): 75% | reduction of IFN-γ produced by PBMCs, significance vs control ([1]; concentrations of 10 to 100 μM, paired Student's t-test): statistically significant (P<0.05) reductions
